Laboratory results reported in US20150265584A1, “LEVUGLANDIN ADDUCTS HISTONE H4 IN A CYCLOOXYGENASE-2-DEPENDENT MANNER, ALTERING ITS INTERACTION WITH DNA” (VANDERBILT UNIVERSITY, priority 2014, published 2015).

Experiments:
RAW264.7 cells = assay: LG-lysyl adduct formation on histones in COX-2-stimulated, AA-treated RAW264.7 cells (LC/ESI/MS/MS); type: cell-based, mouse; details: for LG adduct formation on histones (LG-lysyl lactam adduct): 500 μM scavenger pretreated 45 min, 20 μM AA 1 h, n=2
Description: (§1) To stimulate COX-2 expression, A549 or RAW264.7 cells were treated overnight with 5 ng/mL IL-1β (A549) or 10 μg/mL LPS and 10 U/mL IFNγ (RAW264.7) in serum-free medium. When indicated, cells were pretreated with indomethacin, aldehyde scavengers (glucosamine, 3-MoSA, PPM or EtSA), or vehicle (ethanol for indomethacin, H2O for scavengers) for 45 min, and then given 20 μM arachidonic acid (AA) or DMSO vehicle for 1 h before lysing.
Cultured cells were lysed in hypotonic buffer (10 mM Tris/10 mM NaCl/3 mM MgCl2) containing 1 mM pyridoxamine and 100 μM indomethacin to prevent the artifactual formation of LGE2 during the lytic process. After letting cells swell on ice, membranes were disrupted by addition of Triton X-100 (0.5% final concentration) and vortexing. Nuclei were isolated by centrifugation for 10 min at 1000×g, and the resulting pellet washed with PBS. Histones were extracted in 0.4 N H2SO4, precipitated with trichloracetic acid, and washed with acetone. […] Histones were resolubilized in dilute NaOH, and pH neutralized with HCl. Protein concentration was determined using the method of Bradford. For tissue, a portion of frozen liver was homogenized in buffer containing 40 mM sodium citrate, and 1% Triton X-100 with 3 mM Trolox and 100 μM indomethacin. The supernatant was separated from settled debris, and nuclei were pelleted at 500×g and washed. Nuclear pellets were frequently transferred to fresh tubes to avoid contamination by floating lipid debris; any remaining was removed with a cotton swab. Histones were extracted as above. All centrifugation steps were carried out at 4° C.
Histone samples were prepared for mass spectrometry by addition of ammonium bicarbonate to 5 mM final concentration before digesting to single amino acids by protease step-digestion as previously described. In the case of immunoblots, proteins were digested directly off the nitrocellulose through incubation of the nitrocellulose strip in 30 μg/mL Pronase in ammonium bicarbonate buffer, and later addition of aminopeptidase. All samples were centrifuged at 2000×g for 10 min. after final digestion to remove precipitate, spiked with 0.2 ng ^13C-lysyl-lactam internal standard, and purified on prepared tC18 cartridges (Waters Corp., Milford, Mass.). Samples on tC18 cartridges were washed with water, then 30% methanol, before being eluted in 80% methanol and concentrated by evaporation. Samples were evaluated by electrospray ionization (ESI) LC/MS/MS on a ThermoFisher TSQ Quantum triple quadrapole mass spectrometer in positive ion mode and quantitated by isotopic dilution as previously described, with the exception of a reduced flow rate of 0.1 mL/min.

A549 cells = assay: LG-lysyl adduct formation on histones in COX-2-stimulated, AA-treated A549 cells (LC/ESI/MS/MS); type: cell-based, human
Description: as §1
Cultured cells were lysed in hypotonic buffer (10 mM Tris/10 mM NaCl/3 mM MgCl2) containing 1 mM pyridoxamine and 100 μM indomethacin to prevent the artifactual formation of LGE2 during the lytic process. After letting cells swell on ice, membranes were disrupted by addition of Triton X-100 (0.5% final concentration) and vortexing. […] Protein concentration was determined using the method of Bradford. […]
Histone samples were prepared for mass spectrometry by addition of ammonium bicarbonate to 5 mM final concentration before digesting to single amino acids by protease step-digestion as previously described. […] Samples were evaluated by electrospray ionization (ESI) LC/MS/MS on a ThermoFisher TSQ Quantum triple quadrapole mass spectrometer in positive ion mode and quantitated by isotopic dilution as previously described, with the exception of a reduced flow rate of 0.1 mL/min.

COX-2 = assay: PGE2 production in cell media as measure of COX-2 activity (GC/MS), A549 cells; type: cell-based, human
Description: as §1
A sample of cellular media was taken just prior to lysis and centrifuged to remove any cellular debris. For PGE2 analysis, samples were spiked with 2 ng of [^2H7] PGE2 as an internal standard. Prostaglandins were isolated and derivatized for analysis by GC/MS, operating in negative ion chemical ionization (NICI) mode and monitoring selected ions as previously described. For the […] internal standard, m/z=528. To account for the deuterium-protium exchange at the position C12 of [^2H7] PGE2, the summation of the signals obtained at m/z=530, m/z=531 and m/z=532 was performed.

histone H4 = assay: Salt extraction of A549 nuclei, histone H4 solubility (Western blot); type: cell-based, human; details: A549 cells, 500 μM EtSA 45 min prior to 20 μM AA; 0.6-1.2 M NaCl
Description: 60-80% confluent A549 cells were stimulated and treated with AA±500 μM EtSA before scraping cells in lysis media for nuclear isolation as above. After addition of Tritox X-100 and vortexing, 1.5 mL of each sample was aliquoted into an eppendorf and centrifuged to separate nuclei. Pellets were washed with PBS and all buffer removed. Nuclear pellets were resuspended in extraction buffer containing 0.6M, 0.9M, 1.2M or 1.5M NaCl (with 10 mM Tris, pH 7.5, 3 mM MgCl2, 0.5% NP-40, and protease inhibitor cocktail) and incubated 10 min on ice. Following this extraction period, the nuclei were centrifuged at 16,000×g to obtain the soluble fraction. This was sonicated, denatured at 95° C., and analyzed by SDS-PAGE and Western blotting, using Ponceau stain to visualize proteins and confirm equal loading, and anti-H4 antibody (Abcam, Cambridge, Mass.).

| Compound | LG adduct formation on histones (LG-lysyl lactam adduct) (RAW264.7 cells; RAW264.7 cells) | protecting histones from modification by levuglandins, comparison with other scavengers (RAW264.7 cells; in comparison with salicylamine, pyridoxamine and their other analogues) | LG-histone adduct formation (A549 cells; stimulated A549 cells, 30, 300 or 1000 μM EtSA, 20 μM AA 1 h) | PGE2 production (COX-2; highest concentration tested (1000 μM EtSA), 20 μM AA 1 h) | PGE2 production (COX-2; lower doses of EtSA (data not shown)) | histone H4 elution at lower salt concentrations (DNA-histone interaction) (histone H4) | LG-histone adduct formation (RAW264.7 cells; RAW264.7 cells, 50 μM indomethacin preincubated 45 min, 20 μM AA) | LG-histone adduct formation (A549 cells; A549 cells, 50 μM indomethacin preincubated 45 min, 20 μM AA) |
| --- | --- | --- | --- | --- | --- | --- | --- | --- |
| CCc1ccc(O)c(CN)c1 [EtSA, 5-ethylsalicylamine] | most effectively blocked adduct formation | most potent in protecting histones from modification by levuglandins | inhibited LG-histone adduct formation | without affecting PGE2 production | no effect on PGE2 production | reversed | – | – |
| COc1ccc2c(c1)c(CC(=O)O)c(C)n2C(=O)c1ccc(Cl)cc1 [indomethacin, reference compound] | – | – | – | – | – | – | blocked | blocked |
| pentylpyridoxamine [PPM, reference compound] | partially inhibited histone adduct formation, but was much less potent than 5-ethylsalicylamine | – | – | – | – | – | – | – |
